Where a name gives a salt, the structure may show the parent alone.

The record followed here is patent publication US5594004A, “Compound with platelet aggregation inhibitor activity” (Meiji Seika Kabushiki Kaisha, priority 1993, dated 1997).

The subject of assay [1] is human PRP (platelet rich plasma). The assay is described as follows: Pharmacological test 1: inhibition of ADP-induced platelet aggregation in human PRP. The format is cell-based. To be noted: Platelet, ADP 5 μM inducer; for IC50: Homo sapiens, platelet aggregation; for inhibition at 1 µM: inhibition rate at 10^-6 M. On the procedure: Pharmacological test 1 Inhibition of platelet aggregation
The effect of the compound according to the present invention on inhibiting the platelet aggregation was examined with human PRP (platelet rich plasma).
Nine volumes of a blood sample was taken out of the vein of a normal human with a syringe in which one volume of a 3.8% sodium citrate solution was charged. The blood sample was centrifuged at 170×g at room temperature for 10 minutes. The supernatant thus obtained was isolated as PRP. The residual blood sample that PRP had been taken out was centrifuged at 2,700×g for 15 minutes. The supernatant was then taken as platelet poor plasma (PPP).
Platelet aggregation test was conducted with an aggligometer (PAM-8C; manufactured by MEBANICKS Co., Ltd.). Compounds to be tested were dissolved in a 50% DMSO saline, a 50% methanol saline or physiological saline. The compound and PRP were preincubated for 2 minutes. The ADP (CHRONO-PAR REAGENTS 384 ADP, CHRONO-LOG Corp.) was used as an inducer in the form of a dilution with saline so that the final concentration is 5 μM.
Anti-platelet aggregation activity was obtained as an inhibition rate to platelet aggregation effect of ADP in the absence of a compound to be tested as follows: [formula] Physiological test 2 Inhibition of fibrinogen bonding to platelet GPIIb/IIIa

In assay [2] the target is T1, human platelet GPIIb/IIIa (Homo sapiens, UniProt P05106+P08514).
T1 construct: platelets collected from healthy adults; from tissue; host or cells: platelets from healthy adults (solubilized with octylglucoside, purified on GRGDSPK-Sepharose)
T1 sequence (P08514 32-887 limits assumed): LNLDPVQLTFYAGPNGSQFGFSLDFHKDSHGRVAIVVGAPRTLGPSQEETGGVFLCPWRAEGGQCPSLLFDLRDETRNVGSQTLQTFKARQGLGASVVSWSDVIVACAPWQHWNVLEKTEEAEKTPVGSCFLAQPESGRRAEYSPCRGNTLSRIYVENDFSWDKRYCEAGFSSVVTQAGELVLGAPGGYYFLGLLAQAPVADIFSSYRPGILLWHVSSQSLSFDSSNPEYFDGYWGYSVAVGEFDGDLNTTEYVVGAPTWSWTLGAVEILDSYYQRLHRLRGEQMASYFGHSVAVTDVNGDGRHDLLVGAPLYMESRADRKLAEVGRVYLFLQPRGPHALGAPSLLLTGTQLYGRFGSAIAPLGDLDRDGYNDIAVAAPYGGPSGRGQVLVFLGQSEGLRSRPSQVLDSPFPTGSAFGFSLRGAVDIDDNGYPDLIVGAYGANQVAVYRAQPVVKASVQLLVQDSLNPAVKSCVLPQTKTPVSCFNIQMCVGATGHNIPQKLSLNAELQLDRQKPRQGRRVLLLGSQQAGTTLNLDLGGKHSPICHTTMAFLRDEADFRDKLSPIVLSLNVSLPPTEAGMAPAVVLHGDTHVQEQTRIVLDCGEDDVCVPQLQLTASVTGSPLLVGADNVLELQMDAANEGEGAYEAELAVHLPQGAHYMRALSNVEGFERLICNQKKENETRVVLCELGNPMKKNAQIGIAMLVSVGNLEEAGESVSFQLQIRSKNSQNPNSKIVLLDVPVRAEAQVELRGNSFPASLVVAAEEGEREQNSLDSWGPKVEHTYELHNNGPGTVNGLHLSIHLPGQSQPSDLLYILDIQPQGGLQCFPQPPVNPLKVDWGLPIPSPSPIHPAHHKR
T1 sequence (P08514 891-1039 limits assumed): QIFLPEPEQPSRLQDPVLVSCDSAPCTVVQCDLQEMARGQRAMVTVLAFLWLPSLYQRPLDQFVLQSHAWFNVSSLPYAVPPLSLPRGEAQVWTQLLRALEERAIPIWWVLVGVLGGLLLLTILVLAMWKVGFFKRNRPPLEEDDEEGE
T1 sequence (P05106 27-788): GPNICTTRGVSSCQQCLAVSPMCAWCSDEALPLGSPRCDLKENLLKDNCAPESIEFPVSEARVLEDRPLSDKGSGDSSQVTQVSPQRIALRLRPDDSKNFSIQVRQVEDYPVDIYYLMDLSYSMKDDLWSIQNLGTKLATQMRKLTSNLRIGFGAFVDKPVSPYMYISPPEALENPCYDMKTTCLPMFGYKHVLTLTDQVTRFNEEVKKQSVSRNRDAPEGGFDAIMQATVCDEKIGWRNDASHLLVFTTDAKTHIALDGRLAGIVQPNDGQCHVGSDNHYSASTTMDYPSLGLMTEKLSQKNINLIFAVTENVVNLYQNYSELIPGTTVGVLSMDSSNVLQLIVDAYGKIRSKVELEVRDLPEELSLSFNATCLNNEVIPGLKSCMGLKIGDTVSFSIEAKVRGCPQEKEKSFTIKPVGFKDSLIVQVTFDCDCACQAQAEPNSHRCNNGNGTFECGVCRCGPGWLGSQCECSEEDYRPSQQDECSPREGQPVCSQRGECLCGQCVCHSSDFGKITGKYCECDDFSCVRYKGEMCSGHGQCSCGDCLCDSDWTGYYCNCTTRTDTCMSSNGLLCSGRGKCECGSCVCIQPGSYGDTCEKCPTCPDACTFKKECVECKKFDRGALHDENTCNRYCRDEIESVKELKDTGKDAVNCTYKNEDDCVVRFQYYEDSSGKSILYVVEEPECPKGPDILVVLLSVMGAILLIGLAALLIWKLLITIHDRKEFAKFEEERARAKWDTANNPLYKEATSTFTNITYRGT
The assay can be described thus: Pharmacological test 2: inhibition of fibrinogen bonding to platelet GPIIb/IIIa (solid phase assay, biotinylated fibrinogen). It is filed as binding. To be noted: for IC50: fibrinogen bonding to GPIIb/IIIa; for inhibition at 10 µM: inhibition rate at 10^-5 M; for inhibition at 0.1 µM: inhibition rate at 10^-7 M. On the procedure: Inhibiting effect of the compound according to the present invention on the binding of platelet GPIIb/IIIa and fibrinogen was examined with a solid phase human platelet GPIIb/IIIa bonding assay using biotinylated fibrinogen as a ligand. Human platelet GPIIb/IIIa was purified according to the method described by Pytela, R. et al. (Science, 231, 1559-1561 (1986)). […] The same amount of TBS containing 50 mM octylglucoside and 2 mM PMSF was added to the pellet obtained in order to solubilize the membrane protein at 4° C. for 20 minutes. […] The solubilized protein solution was adsorbed on a GRGDSPK-Sepharose column which had been equilibrated with TBS (Buffer A) containing 50 mM Octylglucoside, 1 mM CaCl2 and MgCl2. After the column was washed with Buffer A, the adsorbed GPIIb/IIIa was eluted with Buffer A containing 2 mM GRGDSP peptide. GRGDSPK-Sepharose was prepared by coupling GRGDSPK peptide and CNBr-activated Sepharose 4B (Pharmacia) according to the instruction of the manufacturer. Then, solid phase human platelet GPIIb/IIIa bonding assay was carried out according to the method of Mori et al. […] Purified human platelet GPIIb/IIIa was adjusted in an amount of 2 μg/ml and adsorbed in an amount of 50 μl on a 96 well-microtiter plate at 4° C. overnight. After washing with TBS containing 1 mM CaCl2 and 1 mM MgCl2, 100 μl of 1% bovine serum albumin was added, blocking was conducted at 4° C. overnight. […] After washing with TBS-Tween 20, 50 μl of peroxidase labelled avidin which had been diluted with TBS to 4,000 times was added. The reaction was continued for 20 minutes. […] A 50 μl portion of a 0.1M citrate buffer containing 0.05% NaN3 was added to stop the reaction, and absorbance at 415 nm was measured. The rate of Bonding inhibition was calculated from the following formula: [formula]

What is called IC50 is the concentration needed to halve the response being measured. Read a low IC50 as inhibition by little substance. For the compound `O=C(O)COc1ccc(C(=O)CNC(=O)c2cc3c(s2)CCNC3)cc1OCC(=O)O` [Example 18, [[4-[[[(4,5,6,7-tetrahydrothieno [3,2-c]pyridin-2-yl]carbonyl]amino]acetyl]-o-phenylene]dioxy]diacetic acid trifluoroacetate], the half-inhibitory concentration (IC50) in assay [1] amounted to 140 nM; in assay [2], 1.7 µM.

As to `O=C(O)COc1ccc(C(O)CNC(=O)c2cc3c(s2)CCNC3)nc1` (stereo not drawn) [Example 21, 2-[1-hydroxy-2-[(4,5,6,7-tetrahydrothieno[3,2-c]pyridin-2-yl)carbonylamino]ethyl]pyridin-5-yloxyacetic acid trifluoroacetate], the values for the concentration for half-maximal inhibition (IC50) in assay [1] and in assay [2] were 500 nM and 10 µM, respectively.

A word on the inhibition: it is how much of the control response was suppressed. A low value points to a response near the control. In assay [1], `NC[C@H]1CC[C@H](C(=O)NCC(=O)c2ccc(OCC(=O)O)c(OCC(=O)O)c2)CC1` [Example 1, [[4-[[[trans-4-(aminomethyl)cyclohexyl]carbonylamino]acetyl]-o-phenylene]dioxy]diacetic acid trifluoroacetate] showed an inhibition at 1 µM of 68%. The compound further yielded an inhibition at 10 µM in assay [2] of 51%.

As for `CN(CC(=O)c1ccc(OCC(=O)O)c(OCC(=O)O)c1)C(=O)CCC1CCNCC1` [Example 9, [[4-[[N-[3-(piperidin-4-yl)propionyl]-N-methylamino]acetyl]-o-phenylene]dioxy]diacetic acid trifluoroacetate], testing at 1 µM in assay [1] gave an inhibition of 79%. In addition, in assay [2], at 0.1 µM the inhibition was 73%.

In assay [1], `NC[C@H]1CC[C@H](C(=O)NCCc2ccc(OCC(=O)O)c(OCC(=O)O)c2)CC1` [Example 7, [[4-[[2-[trans-4-(aminomethyl)cyclohexyl]carbonylamino]ethyl]-o-phenylene]dioxy]diacetic acid trifluoroacetate] gave an inhibition at 1 µM of 48%. Further, 10 µM produced 27% inhibition in assay [2].

Consider `Cc1c(C(=O)NCC(=O)c2ccc(OCC(=O)O)c(OCC(=O)O)c2)sc2c1CNCC2` [Example 27, [[4-[[[(3-methyl-4,5,6,7-tetrahydrothieno[3.2-c]pyridin-2-yl)carbonyl]amino]acetyl]-o-phenylene]dioxy]diacetic acid trifluoroacetate], for which the results for the concentration for half-maximal inhibition (IC50) in assay [1] and in assay [2] were 2500 nM and 9.5 µM, respectively.

For `CN(CC(=O)c1ccc(OCC(=O)O)c(OCC(=O)O)c1)C(=O)c1cc2c(s1)CCNC2` [Example 19, [[4-[[[(4,5,6,7-tetrahydrothieno[3,2-c]pyridin-2-yl)carbonyl]-N-methylamino]acetyl]-o-phenylene]dioxy]diacetic acid trifluoroacetate], the IC50 stood at 550 nM in assay [1] and 3.6 µM in assay [2].

With `O=C(O)COc1ccc(C(=O)CNC(=O)c2cc3c(s2)CCNC3)cc1` [Example 22, 4-[[(4,5,6,7-tetrahydrothieno[3,2-c]pyridin-2-yl)carbonyl]aminoacetyl]phenoxyacetic acid trifluoroacetate], the IC50 in assay [1] is 1200 nM; in assay [2], more than 10 µM.

Take `NCC1CCC(c2ncc(-c3ccc(OCC(=O)O)c(OCC(=O)O)c3)o2)CC1` (stereo not drawn) [Example 4, 2-(4-aminomethylcyclohexyl)-5-(3,4-dicarboxymethoxy)phenyloxazole]: in assay [1], the inhibition at 1 µM worked out at 85%. In addition, in assay [2], the inhibition at 10 µM came to 73%.

For `O=C(O)COc1ccc(C(=O)CNC(=O)CCC2CCNCC2)cc1OCC(=O)O` [Example 10, [[4-[[N-[3-(piperidin-4-yl)propionyl]amino]acetyl]-o-phenylene]dioxy]diacetic acid trifluoroaceetate], in assay [1], half-maximal inhibition (IC50) required 350 nM and the inhibition at 1 µM worked out at 85%. Besides, in assay [2], the inhibition at 0.1 µM came to 82%.
